Laboratory results published in patent US9365619B2, “IgG-binding peptide and method for detecting and purifying IgG using same” (Otsuka Chemical Co., Ltd., priority 2011, dated 2016).
Where two headings read alike, the source gives them in different places. Bridge positions count the residues as written; N and C are the ends. Peptide text beside a SMILES is read from it.

Target: human IgG
Assay: Surface plasmon resonance (SPR) analysis of synthetic peptide binding to human IgG
Details: for affinity compared with the original peptide, in words: compared with GFc-C35-3/15
Procedure: In order to narrow down the amino acid region to be studied, a peptide in which one amino acid was deleted from each end of GFc-C35 (GFc-C35-2/16) and a peptide in which two amino acids were deleted from each end of CFc-C35 (GFc-C35-3/15) were synthesized. Among these peptides, based on the GFc-C35-3/15 synthetic peptide, the effect of the introduction of amino acid mutations on affinity was evaluated. That is, the contribution of each amino acid substitution to affinity was evaluated by synthesizing peptides substituted with frequently or occasionally observed amino acids obtained from the phage libraries and subjecting the resulting synthetic peptides to binding analysis.
Based on the synthetic peptide C35A, peptides substituted with amino acids observed at high frequency in the aforementioned phage libraries were synthesized by introducing amino acid mutations, and in a similar manner to the above, their binding to human IgG was analyzed by surface plasmon resonance (SPR) analysis to evaluate the contribution of each amino acid substitution to affinity.

[1] = SPR sensorgram analysis, human IgG, read-out: affinity (Kd value)
[2] = SPR, synthetic peptide binding to human IgG, read-out: Kd
[3] = SPR sensorgram analysis, human IgG

Kd [2] | Structure (SMILES) | further results
120000 nM | CC(C)C[C@@H]1NC(=O)[C@H](CC(N)=O)NC(=O)CNC(=O)[C@H](CC(N)=O)NC(=O)[C@H]([C@@H](C)O)NC(=O)[C@H](Cc2ccc(O)cc2)NC(=O)[C@H](CO)NC(=O)[C@@H](NC(=O)[C@@H](N)CC(=O)O)CSSC[C@@H](C(=O)N[C@H](C(N)=O)[C@@H](C)O)NC(=O)[C@H](Cc2c[nH]c3ccccc23)NC(=O)[C@H](C(C)C)NC1=O [GFc-C35-3/15 (T5S), DCSYTNGNLVWCT] (H-DCSYTNGNLVWCT-NH2; disulfide 2-12) | –
3000 nM | CC(C)C[C@@H]1NC(=O)[C@H](CC(N)=O)NC(=O)CNC(=O)[C@H](CC(N)=O)NC(=O)[C@H](Cc2c[nH]cn2)NC(=O)[C@H](Cc2ccc(O)cc2)NC(=O)[C@H]([C@@H](C)O)NC(=O)[C@@H](NC(=O)[C@@H](N)CC(=O)O)CSSC[C@@H](C(=O)N[C@H](C(N)=O)[C@@H](C)O)NC(=O)[C@H](Cc2c[nH]c3ccccc23)NC(=O)[C@H](C(C)C)NC1=O [GFc-C35-3/15 (T7H), DCTYHNGNLVWCT] (H-DCTYHNGNLVWCT-NH2; disulfide 2-12) | –
280000 nM | CSCC[C@@H]1NC(=O)[C@H](CC(N)=O)NC(=O)CNC(=O)[C@H](CC(N)=O)NC(=O)[C@H]([C@@H](C)O)NC(=O)[C@H](Cc2ccc(O)cc2)NC(=O)[C@H]([C@@H](C)O)NC(=O)[C@@H](NC(=O)[C@@H](N)CC(=O)O)CSSC[C@@H](C(=O)N[C@H](C(N)=O)[C@@H](C)O)NC(=O)[C@H](Cc2c[nH]c3ccccc23)NC(=O)[C@H](C(C)C)NC1=O [GFc-C35-3/15 (L11M), DCTYTNGNMVWCT] (H-DCTYTNGNMVWCT-NH2; disulfide 2-12) | affinity compared with the original peptide, in words: a decrease in affinity
34000 nM | CC(C)C[C@@H]1NC(=O)[C@H](CC(N)=O)NC(=O)CNC(=O)[C@H](CC(N)=O)NC(=O)[C@H]([C@@H](C)O)NC(=O)[C@H](Cc2ccc(O)cc2)NC(=O)[C@H]([C@@H](C)O)NC(=O)[C@@H](NC(=O)[C@@H](N)CC(=O)O)CSSC[C@@H](C(=O)N[C@@H](CO)C(N)=O)NC(=O)[C@H](Cc2c[nH]c3ccccc23)NC(=O)[C@H](C(C)C)NC1=O [GFc-C35-3/15 (T15S), DCTYTNGNLVWCS] (H-DCTYTNGNLVWCS-NH2; disulfide 2-12) | –
130000 nM | CC(C)C[C@@H]1NC(=O)[C@H](CC(N)=O)NC(=O)CNC(=O)[C@H](CC(N)=O)NC(=O)[C@H]([C@@H](C)O)NC(=O)[C@H](Cc2ccc(O)cc2)NC(=O)[C@H]([C@@H](C)O)NC(=O)[C@@H](NC(=O)[C@@H](N)CC(=O)O)CSSC[C@@H](C(=O)N[C@H](C(N)=O)[C@@H](C)O)NC(=O)[C@H](Cc2c[nH]c3ccccc23)NC(=O)[C@H](C(C)C)NC1=O [GFc-C35-3/15, DCTYTNGNLVWCT] (H-DCTYTNGNLVWCT-NH2; disulfide 2-12) | –
80000 nM | CC(C)C[C@@H]1NC(=O)[C@H](CC(=O)O)NC(=O)CNC(=O)[C@H](CC(N)=O)NC(=O)[C@H]([C@@H](C)O)NC(=O)[C@H](Cc2ccc(O)cc2)NC(=O)[C@H]([C@@H](C)O)NC(=O)[C@@H](NC(=O)[C@@H](N)CC(=O)O)CSSC[C@@H](C(=O)N[C@H](C(N)=O)[C@@H](C)O)NC(=O)[C@H](Cc2c[nH]c3ccccc23)NC(=O)[C@H](C(C)C)NC1=O [GFc-C35-3/15 (N10D), DCTYTNGDLVWCT] (H-DCTYTNGDLVWCT-NH2; disulfide 2-12) | affinity compared with the original peptide, in words: more or less improved affinity
26000 nM | CC(C)C[C@@H]1NC(=O)[C@H](CC(N)=O)NC(=O)CNC(=O)[C@H](CC(N)=O)NC(=O)[C@H](CO)NC(=O)[C@H](Cc2ccc(O)cc2)NC(=O)[C@H]([C@@H](C)O)NC(=O)[C@@H](NC(=O)[C@@H](N)CC(=O)O)CSSC[C@@H](C(=O)N[C@H](C(N)=O)[C@@H](C)O)NC(=O)[C@H](Cc2c[nH]c3ccccc23)NC(=O)[C@H](C(C)C)NC1=O [GFc-C35-3/15 (T7S), DCTYSNGNLVWCT] (H-DCTYSNGNLVWCT-NH2; disulfide 2-12) | –

Continued, molecule first:

Structure (SMILES) | Kd [2] | further results
CC(C)C[C@@H]1NC(=O)[C@H](CCC(=O)O)NC(=O)CNC(=O)[C@H](CCCNC(=N)N)NC(=O)[C@H](Cc2c[nH]cn2)NC(=O)[C@H](Cc2ccc(O)cc2)NC(=O)[C@H](C)NC(=O)[C@@H](NC(=O)[C@@H](N)CCCNC(=N)N)CSSC[C@@H](C(=O)N[C@@H](CO)C(N)=O)NC(=O)[C@H](Cc2c[nH]c3ccccc23)NC(=O)[C@H](C(C)C)NC1=O [RCAYHRGELVWCS] (H-RCAYHRGELVWCS-NH2; disulfide 2-12) | – | Kd [1]: 147 nM
CC(C)C[C@@H]1NC(=O)[C@H](CCC(=O)O)NC(=O)CNC(=O)[C@H](CCCNC(=N)N)NC(=O)[C@H](Cc2c[nH]cn2)NC(=O)[C@H](Cc2ccc(O)cc2)NC(=O)[C@H](C)NC(=O)[C@@H](NC(=O)[C@H](CC(=O)O)NC(=O)[C@H](CC(=O)O)NC(=O)[C@@H](N)CO)CSSC[C@@H](C(=O)N[C@H](C(=O)N[C@@H](Cc2ccccc2)C(=O)N[C@@H](Cc2ccc(O)cc2)C(N)=O)[C@@H](C)O)NC(=O)[C@H](Cc2c[nH]c3ccccc23)NC(=O)[C@H](C(C)C)NC1=O [C35A (P2D, H17Y), SDDCAYHRGELVWCTFY] (H-SDDCAYHRGELVWCTFY-NH2; disulfide 4-14) | 13 nM | –
CC(C)C[C@@H]1NC(=O)[C@H](CCC(=O)O)NC(=O)CNC(=O)[C@H](CCCNC(=N)N)NC(=O)[C@H](Cc2c[nH]cn2)NC(=O)[C@H](Cc2c[nH]c3ccccc23)NC(=O)[C@H](C)NC(=O)[C@@H](NC(=O)[C@@H](N)CC(=O)O)CSSC[C@@H](C(=O)N[C@H](C(N)=O)[C@@H](C)O)NC(=O)[C@H](Cc2c[nH]c3ccccc23)NC(=O)[C@H](C(C)C)NC1=O [GFc-C35-3/15 (T5A, Y6W, T7H, N8R, N10E), DCAWHRGELVWCT] | 260 nM | association rate constant ka [3]: 5.4×10^4 M^−1S^−1; dissociation rate constant kd [3]: 1.4×10^−2 S^−1; Kd [1]: 257 nM; association rate constant ka relative to GFc-C35-3/15 (T5A, T7H, N8R, N10E) (SPR, human IgG): ⅛
CC(C)C[C@@H]1NC(=O)[C@H](CCC(=O)O)NC(=O)CNC(=O)[C@H](CCCNC(=N)N)NC(=O)[C@H](Cc2c[nH]cn2)NC(=O)[C@H](Cc2ccc(O)cc2)NC(=O)[C@H](C)NC(=O)[C@@H](NC(=O)[C@@H](N)CC(=O)O)CSSC[C@@H](C(=O)N[C@H](C(N)=O)[C@@H](C)O)NC(=O)[C@H](Cc2c[nH]c3ccccc23)NC(=O)[C@H](C(C)C)NC1=O [GFc-C35-3/15 (T5A, T7H, N8R, N10E), DCAYHRGELVWCT] (H-DCAYHRGELVWCT-NH2; disulfide 2-12) | – | association rate constant ka [3]: 4.6×10^5 M^−1S^−1; dissociation rate constant kd [3]: 2.5×10^−2 S^−1; Kd [1]: 54 nM; fold increase in affinity (fold decrease in Kd value) (relative to original peptide GFc-C35-3/15): approximately 2400 fold
CC(C)C[C@@H]1NC(=O)[C@H](CC(N)=O)NC(=O)CNC(=O)[C@H](CC(N)=O)NC(=O)[C@H]([C@@H](C)O)NC(=O)[C@H](Cc2ccc(O)cc2)NC(=O)[C@H]([C@@H](C)O)NC(=O)[C@@H](NC(=O)[C@H](CC(=O)O)NC(=O)[C@@H]2CCCN2)CSSC[C@@H](C(=O)N[C@H](C(=O)N[C@@H](Cc2ccccc2)C(N)=O)[C@@H](C)O)NC(=O)[C@H](Cc2c[nH]c3ccccc23)NC(=O)[C@H](C(C)C)NC1=O [GFc-C35-2/16, PDCTYTNGNLVWCTF] (H-PDCTYTNGNLVWCTF-NH2; disulfide 3-13) | 25000 nM | –
CC(C)C[C@@H]1NC(=O)[C@H](CC(N)=O)NC(=O)CNC(=O)[C@H](CCCNC(=N)N)NC(=O)[C@H](Cc2c[nH]cn2)NC(=O)[C@H](Cc2ccc(O)cc2)NC(=O)[C@H](C)NC(=O)[C@@H](NC(=O)[C@@H](N)CC(=O)O)CSSC[C@@H](C(=O)N[C@H](C(N)=O)[C@@H](C)O)NC(=O)[C@H](Cc2c[nH]c3ccccc23)NC(=O)[C@H](C(C)C)NC1=O [GFc-C35-3/15 (T7H, N8R, T5A), DCAYHRGNLVWCT] (H-DCAYHRGNLVWCT-NH2; disulfide 2-12) | 250 nM | affinity compared with the parent peptide, in words (compared with GFc-C35-3/15 (T7H, N8R)): affinity-enhancing effect
CC(C)C[C@@H]1NC(=O)[C@H](CCC(=O)O)NC(=O)CNC(=O)[C@H](CCCNC(=N)N)NC(=O)[C@H](Cc2c[nH]cn2)NC(=O)[C@H](Cc2ccc(O)cc2)NC(=O)[C@H](C)NC(=O)[C@@H](NC(=O)[C@H](CO)NC(=O)[C@@H]2CCCN2C(=O)CN)CSSC[C@@H](C(=O)N[C@H](C(=O)N[C@@H](Cc2ccccc2)C(=O)N[C@@H](Cc2c[nH]cn2)C(N)=O)[C@@H](C)O)NC(=O)[C@H](Cc2c[nH]c3ccccc23)NC(=O)[C@H](C(C)C)NC1=O [C35A (D3S), GPSCAYHRGELVWCTFH] (H-GPSCAYHRGELVWCTFH-NH2; disulfide 4-14) | 28.5 nM | –
CC(C)C[C@@H]1NC(=O)[C@H](CCC(=O)O)NC(=O)CNC(=O)[C@H](CC(N)=O)NC(=O)[C@H]([C@@H](C)O)NC(=O)[C@H](Cc2ccc(O)cc2)NC(=O)[C@H]([C@@H](C)O)NC(=O)[C@@H](NC(=O)[C@@H](N)CC(=O)O)CSSC[C@@H](C(=O)N[C@H](C(N)=O)[C@@H](C)O)NC(=O)[C@H](Cc2c[nH]c3ccccc23)NC(=O)[C@H](C(C)C)NC1=O [GFc-C35-3/15 (N10E), DCTYTNGELVWCT] (H-DCTYTNGELVWCT-NH2; disulfide 2-12; N-terminus and C-terminus assumed) | 26000 nM | affinity compared with the original peptide, in words: higher affinity than the original peptide
CC(C)C[C@@H]1NC(=O)[C@H](CCC(=O)O)NC(=O)CNC(=O)[C@H](CCCNC(=N)N)NC(=O)[C@H](Cc2c[nH]cn2)NC(=O)[C@H](Cc2ccc(O)cc2)NC(=O)[C@H](C)NC(=O)[C@@H](NC(=O)[C@H](CC(=O)O)NC(=O)[C@@H]2CCCN2C(=O)CN)CSSC[C@@H](C(=O)N[C@H](C(=O)N[C@@H](Cc2ccccc2)C(=O)N[C@@H](Cc2c[nH]cn2)C(N)=O)[C@@H](C)O)NC(=O)[C@H](Cc2c[nH]c3ccccc23)NC(=O)[C@H](C(C)C)NC1=O [Peptide C35A, GPDCAYHRGELVWCTFH] (H-GPDCAYHRGELVWCTFH-NH2; disulfide 4-14) | 9 nM | –
